Laboratory results: patent publication US9802918B2, “Pyridineamine compounds useful as Pim kinase inhibitors” (Incyte Corporation, priority 2015, dated 2017)

Assays:
Type in all cases: biochemical
Pim-3 = Pim-3 (Homo sapiens (Human), UniProt Q86V86); assay: Pim-3 kinase assay; settings: 1 mM ATP; read-out: Pim3 IC50
Protocol: Pim-1 and Pim-3 kinase assays-20 μL reactions were run in white 384 well polystyrene plates dotted with 0.8 μL compound/DMSO in the assay buffer (50 mM Tris, pH 7.5, 0.01% Tween-20, 5 mM mgCl2, 0.01% BSA, 5 mM DTT), containing […] Biotin-labeled BAD peptide substrate (AnaSpec 62269), 1 mM ATP, and 2.5 pM (Pim-1, Invitrogen PV3503) or 1.25 pM (Pim-3, Millipore 14-738) enzyme for 1 h at 25° C. Reactions were stopped by addition of 10 μL STOP Buffer (150 mM Tris, pH=7.5, 150 mM NaCl, 75 mM EDTA, 0.01% Tween-20, 0.3% BSA,) supplemented with Phospho-Bad (Ser112) Antibody (Cell Signaling 9291) diluted 666-fold, and Streptavidin donor beads (PerkinElmer 6760002) along with Protein-A acceptor beads (PerkinElmer 6760137) at 15 μg/mL each. Supplementation of the STOP buffer with beads and stopping the reactions were done under reduced light. Prior to the stopping reactions STOP buffer with beads was preincubated for 1 h in the dark at room temperature. After stopping the reactions, plates were incubated for 1 h in the dark at room temperature before reading on a PHERAstar FS plate reader (BMG Labtech) under reduced light.

Pim-1 = Pim-1 (Homo sapiens (Human), UniProt P11309); assay: Pim-1 kinase assay; settings: 1 mM ATP; read-out: Pim1 IC50
Protocol: Supplementation of the STOP buffer with beads and stopping the reactions were done under reduced light. Prior to the stopping reactions STOP buffer with beads was preincubated for 1 h in the dark at room temperature. After stopping the reactions, plates were incubated for 1 h in the dark at room temperature before reading on a PHERAstar FS plate reader (BMG Labtech) under reduced light.

Pim-2 = Pim-2 (Homo sapiens (Human), UniProt Q9P1W9); assay: Pim-2 kinase assay; settings: 1 mM ATP; read-out: Pim2 IC50
Protocol: Pim-2 kinase assay—20 μL reactions were run in white 384 well polystyrene plates dotted with 0.8 μL compound/DMSO in the assay buffer (50 mM Tris, pH 7.5, 0.01% Tween-20, 5 mM mgCl2, 0.01% BSA, 5 mM DTT), containing […] Fluorescein-labeled CREBtide peptide substrate (Invitrogen PV3508), 1 mM ATP, and 1 nM enzyme (Invitrogen PV3649) for 2 h at 25° C. Reactions were stopped by addition of 10 μL TR-FRET Dilution Buffer (Invitrogen PV3574) with 30 mM EDTA and 1.5 nM LanthaScreen Tb-CREB pSer133 antibody (Invitrogen PV3566). After 30 min. incubation at room temperature, plates were read on a PHERAstar FS plate reader (BMG Labtech).

Sequence of Pim-2 (Q9P1W9 whole entry): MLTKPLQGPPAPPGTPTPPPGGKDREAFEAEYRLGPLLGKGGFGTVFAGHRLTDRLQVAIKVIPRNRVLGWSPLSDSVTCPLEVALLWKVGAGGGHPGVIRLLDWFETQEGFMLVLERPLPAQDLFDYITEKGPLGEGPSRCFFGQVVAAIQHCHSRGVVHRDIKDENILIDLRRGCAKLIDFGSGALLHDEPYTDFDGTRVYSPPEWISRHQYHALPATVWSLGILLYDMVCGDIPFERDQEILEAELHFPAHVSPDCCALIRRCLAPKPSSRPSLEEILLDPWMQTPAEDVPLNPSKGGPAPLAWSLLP
Sequence of Pim-1 (P11309 whole entry): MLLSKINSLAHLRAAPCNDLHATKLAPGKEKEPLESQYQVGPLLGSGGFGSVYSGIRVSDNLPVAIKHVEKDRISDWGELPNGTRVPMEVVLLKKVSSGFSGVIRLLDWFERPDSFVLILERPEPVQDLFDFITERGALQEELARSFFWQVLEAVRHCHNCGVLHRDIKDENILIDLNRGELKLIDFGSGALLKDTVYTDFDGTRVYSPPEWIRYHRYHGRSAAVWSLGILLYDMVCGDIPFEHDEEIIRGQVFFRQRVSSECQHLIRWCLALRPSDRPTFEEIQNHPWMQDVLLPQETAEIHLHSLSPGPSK

SMILES | IC50 (Pim-3) | IC50 (Pim-1) | IC50 (Pim-2)
C[C@@H]1C[C@H](N)CN(c2c(NCc3ccc(F)c(-c4c(F)cccc4F)n3)cnc3c2CCC3O)C1 (single isomer, unassigned) [Example 87 (Diastereoisomer 1)] | 10 to 50 nM | < 10 nM | 1000 to 10000 nM
C[C@@H]1C[C@H](N)CN(c2c(NCc3ccc(F)c(-c4c(F)cccc4F)n3)cnc3c2CC[C@H]3O)C1 (single isomer, unassigned) [Example 87 (Diastereoisomer 2)] | 10 to 50 nM | < 10 nM | 100 to 1000 nM
N[C@H]1C[C@@H](C(F)(F)F)CN(c2ccncc2NCc2ccc(F)c(-c3c(F)cc(N4CCOCC4)cc3F)n2)C1 (stereo in doubt) [Example 34, 4-((3S, SR)-3-Amino-5-(trifluoromethyl)piperidin-1-yl)-N-((6-(2,6-difluoro-4-morpholinophenyl)-5-fluoropyridin-2-yl)methyl)pyridin-3-amine] | ≤ 10 nM | < 10 nM | ≤ 100 nM
C[C@H]1CN(c2ccncc2NCc2ccc(F)c(-c3c(F)cc(C4(O)CCOC4)cc3F)n2)C[C@@H](N)[C@@H]1O (stereo partly drawn) [Example 1, (3R,4R,5S)-3-Amino-1-{3-[({6-[2,6-difluoro-4-(3-hydroxytetrahydrofuran-3-yl)phenyl]-5-fluoropyridin-2-yl}methyl)amino]pyridin-4-yl}-5-methylpiperidin-4-ol] | ≤ 10 nM | < 10 nM | ≤ 100 nM
C[C@H]1CN(c2ccncc2NCc2ccc(F)c(-c3c(F)cc(C4(O)CCC4)cc3F)n2)C[C@@H](N)[C@@H]1O [Example 2, (3R,4R,5S)-3-Amino-1-(3-(((6-(2,6-difluoro-4-(1-hydroxycyclobutyl)phenyl)-5-fluoropyridin-2-yl)methyl)amino)pyridin-4-yl)-5-methylpiperidin-4-ol] | ≤ 10 nM | < 10 nM | ≤ 100 nM
C[C@H]1CN(c2ccncc2NCc2ccc(F)c(-c3c(F)cc(C4(O)CCOCC4)cc3F)n2)C[C@@H](N)[C@@H]1O [Example 3, (3R,4R,5S)-3-Amino-1-(3-(((6-(2,6-difluoro-4-(4-hydroxytetrahydro-2H-pyran-4-yl)phenyl)-5-fluoropyridin-2-yl)methyl)amino)pyridin-4-yl)-5-methylpiperidin-4-ol] | ≤ 10 nM | < 10 nM | ≤ 100 nM
C[C@@H]1C[C@H](N)CN(c2ccncc2NCc2ccc(F)c(-c3c(F)cc(C4(O)CCOC4)cc3F)n2)C1 (stereo partly drawn) [Example 4, 3-(4-{6-[({4-[(3S,5R)-3-Amino-5-methylpiperidin-1-yl]pyridin-3-yl}amino)methyl]-3-fluoropyridin-2-yl}-3,5-difluorophenyl)tetrahydrofuran-3-ol] | ≤ 10 nM | < 10 nM | ≤ 100 nM
C[C@@H]1C[C@H](N)CN(c2ccncc2NCc2ccc(F)c(-c3c(F)cc(C4(O)CCC4)cc3F)n2)C1 [Example 5, 1-(4-(6-((4-((3S,5R)-3-Amino-5-methylpiperidin-1-yl)pyridin-3-ylamino)methyl)-3-fluoropyridin-2-yl)-3,5-difluorophenyl)cyclobutanol] | ≤ 10 nM | < 10 nM | ≤ 100 nM
C[C@@H]1C[C@H](N)CN(c2ccncc2NCc2ccc(F)c(-c3c(F)cc(C4(O)CCOCC4)cc3F)n2)C1 [Example 6, 4-(4-(6-((4-((3S,5R)-3-Amino-5-methylpiperidin-1-yl)pyridin-3-ylamino)methyl)-3-fluoropyridin-2-yl)-3,5-difluorophenyl)tetrahydro-2H-pyran-4-ol] | ≤ 10 nM | < 10 nM | ≤ 100 nM
N[C@H]1C[C@@H](C(F)(F)F)CN(c2ccncc2NCc2ccc(F)c(-c3c(F)cc(C4(O)CCC4)cc3F)n2)C1 [Example 7, 1-(4-{6-[({4-[(3S,5R)-3-Amino-5-(trifluoromethyl)piperidin-1-yl]pyridin-3-yl}amino)methyl]-3-fluoropyridin-2-yl}-3,5-difluorophenyl)cyclobutanol] | ≤ 10 nM | < 10 nM | ≤ 100 nM
C[C@H]1CN(c2ccncc2NCc2ccc(F)c(-c3c(F)cc(C4(O)CC4)cc3F)n2)C[C@@H](N)[C@@H]1O [Example 8, (3R,4R,5S)-3-Amino-1-{3-[({6-[2,6-difluoro-4-(1-hydroxycyclopropyl)phenyl]-5-fluoropyridin-2-yl}methyl)amino]pyridin-4-yl}-5-methylpiperidin-4-ol] | ≤ 10 nM | < 10 nM | 100 to 1000 nM
C[C@H]1CN(c2ccncc2NCc2ccc(F)c(-c3c(F)ccc(C4(O)CC4)c3F)n2)C[C@@H](N)[C@@H]1O [Example 9, (3R,4R,5S)-3-Amino-1-(3-(((6-(2,6-difluoro-3-(1-hydroxycyclopropyl)phenyl)-5-fluoropyridin-2-yl)methyl)amino)pyridin-4-yl)-5-methylpiperidin-4-ol] | ≤ 10 nM | < 10 nM | 100 to 1000 nM
C[C@@H]1C[C@H](N)CN(c2ccncc2NCc2ccc(F)c(-c3c(F)cc(C4(O)CC4)cc3F)n2)C1 [Example 10, 1-(4-{6-[({4-[(3S,5R)-3-Amino-5-methylpiperidin-1-yl]pyridin-3-yl}amino)methyl]-3-fluoropyridin-2-yl}-3,5-difluorophenyl)cyclopropanol] | ≤ 10 nM | < 10 nM | ≤ 100 nM
C[C@@H]1C[C@H](N)CN(c2ccncc2NCc2ccc(F)c(-c3c(F)ccc(C4(O)CC4)c3F)n2)C1 [Example 11, 1-(3-(6-((4-((3S,5R)-3-Amino-5-methylpiperidin-1-yl)pyridin-3-ylamino)methyl)-3-fluoropyridin-2-yl)-2,4-difluorophenyl)cyclopropanol] | ≤ 10 nM | < 10 nM | 100 to 1000 nM
C[C@H]1CN(c2ccncc2NCc2ccc(F)c(-c3c(F)cc(CC(C)(C)O)cc3F)n2)C[C@@H](N)[C@@H]1O [Example 12, (3R,4R,5S)-3-Amino-1-{3-[({6-[2,6-difluoro-4-(2-hydroxy-2-methylpropyl)phenyl]-5-fluoropyridin-2-yl}methyl)amino]pyridin-4-yl}-5-methylpiperidin-4-ol] | ≤ 10 nM | < 10 nM | ≤ 100 nM
C[C@@H]1C[C@H](N)CN(c2ccncc2NCc2ccc(F)c(-c3c(F)cc(CC(C)(C)O)cc3F)n2)C1 [Example 13, 1-(4-{6-[({4-[(3S,5R)-3-Amino-5-methylpiperidin-1-yl]pyridin-3-yl}amino)methyl]-3-fluoropyridin-2-yl}-3,5-difluorophenyl)-2-methylpropan-2-ol] | ≤ 10 nM | < 10 nM | ≤ 100 nM
C[C@H]1CN(c2ccncc2NCc2ccc(F)c(-c3c(F)cccc3F)n2)C[C@@H](N)[C@@H]1O [Example 14, (3R,4R,5S)-3-Amino-1-[3-({[6-(2,6-difluorophenyl)-5-fluoropyridin-2-yl]methyl}amino)pyridin-4-yl]-5-methylpiperidin-4-ol] | ≤ 10 nM | < 10 nM | ≤ 100 nM
COc1cccc(F)c1-c1nc(CNc2cnccc2N2C[C@@H](N)[C@H](O)[C@@H](C)C2)ccc1F [Example 15, (3R,4R,5S)-3-Amino-1-(3-(((5-fluoro-6-(2-fluoro-6-methoxyphenyl)pyridin-2-yl)methyl)amino)pyridin-4-yl)-5-methylpiperidin-4-ol] | ≤ 10 nM | < 10 nM | 100 to 1000 nM
